# Results as given in US20010024809A1, “Compounds with an antioxidant activity, compositions useful as food integrators containing them and process for their preparation” (priority 2000, published 2001).
# Experiment: Chemiluminescent antioxidant capacity in vitro (luminol/H2O2/p-iodophenol, peroxidase)
# Assay type: biochemical
# Settings: for Time (min.) necessary for reaching 50% of the control light emission: water control; for light emission: concentration not given; for antioxidant activity in vitro compared with Trolox: same concentration, extinguishing time of the light emission
# Experimental: The antioxidant capacity “in vitro” of FPA and FPB compounds, extracted from Ajuga reptans, and “in vivo” of the serum of rats treated with these substances, was evaluated by means of a chemiluminescent method and compared with that of an analogous hydrosoluble product of vitamin E.
# The chemiluminescent reaction of luminol was used, which is oxidized by hydrogen peroxide (H2O2), generating unstable radicals which degenerate to their basic state emitting light. This reaction is catalyzed by peroxidase enzyme. A signal potentiator is also present in the system: p-iodophenol which increases the light emission, producing in turn radicals which degenerate emitting photons.
# The presence of substances with an antioxidant activity interrupts the chain of radicalic reactions, temporarily preventing light emission. The time and extinguishing degree of the emission of photons are in relation to the antioxidant capacity and concentration of the substances being tested.
# ECL reagent (luminol/H2O2/p-iodophenol) of Amersham International (Amersham, UK).
# […] (type VI-A, 1100 U/mg) of Sigma (St. Louis, Mo., U.S.A.).
# Samples relating to FPA and FPB molecules extracted from Ajuga reptans, were prepared in aqueous solution at different concentrations (5.0, 2.0, 1.0 and 0.5 μM) and compared with solutions, at equal concentrations, of Trolox, an analogous hydrosoluble product of tocopherol. The serum of rats treated with raw extract of Ajuga reptans by intravenous administration at a dosage of 200 mg/kg were diluted 1:20 with water and compared with the serum of a non-treated rat.
# Distilled water was used as control.
# The dosage was effected in black polystyrene cylinders (Dynatech Laboratories, Chantilly, Va., U.S.A.). The chemiluminescent mixture was prepared by adding 100 μl of a dilution 1:10,000 v/v (0.11 U/ml) of a stock solution of peroxidase (1 mg/ml in a Tris-HCl 0.1 M buffer, pH 8.6) to 5 ml of ECL reagent. The various dilutions of the samples were distributed in quadruple into the cylinders (50 μl/cylinder) and 100 μl of chemiluminescent mixture were added to each. The light emission was measured immediately using a Luminograph LB980 (EG&G Berthold, Bad Wildbad, Germany) and the chemiluminescent reaction kinetics was monitored for about 60 minutes. The light emission was measured in photons/sec/pixel and the data obtained are indicated in Table 1 and the graph of FIG. 1 enclosed, compared with the control (water) and references (Trolox or serum of a non-treated rat).
SMILES,Time (min.) necessary for reaching 50% of the control light emission (Concentration 0.5 μM) [min],Time (min.) necessary for reaching 50% of the control light emission (Concentration 1 μM) [min],Time (min.) necessary for reaching 50% of the control light emission (Concentration 2 μM) [min],Time (min.) necessary for reaching 50% of the control light emission (Concentration 5 μM) [min],light emission (Time 0 (min)) [photons/sec/pixel],light emission (Time 2 (min)) [photons/sec/pixel],light emission (Time 5 (min)) [photons/sec/pixel],light emission (Time 7 (min)) [photons/sec/pixel],light emission (Time 9 (min)) [photons/sec/pixel],light emission (Time 11 (min)) [photons/sec/pixel],light emission (Time 14 (min)) [photons/sec/pixel],light emission (Time 17 (min)) [photons/sec/pixel],light emission (Time 19 (min)) [photons/sec/pixel],light emission (Time 21 (min)) [photons/sec/pixel],light emission (Time 23 (min)) [photons/sec/pixel],light emission (Time 26 (min)) [photons/sec/pixel],light emission (Time 28 (min)) [photons/sec/pixel],light emission (Time 30 (min)) [photons/sec/pixel],light emission (Time 32 (min)) [photons/sec/pixel],light emission (Time 34 (min)) [photons/sec/pixel],also measured
"Cc1c(C)c2c(c(C)c1O)CCC(C)(C(=O)O)O2 (racemic) [Trolox, (+/−)-6-hydroxy-2,5,7,8-tetramethylchroman-2-carbonsaeure, reference compound]",1,3,6,15,31.8,2.9,7.8,35.5,46.9,49.3,50.4,49.7,49.2,48.3,47.3,46.2,45.1,43.7,42.1,40.8,light emission (Time 37 (min)): 39.3 photons/sec/pixel; light emission (Time 41 (min)): 35.3 photons/sec/pixel; light emission (Time 44 (min)): 35 photons/sec/pixel; light emission (Time 46 (min)): 32.8 photons/sec/pixel; light emission (Time 49 (min)): 31.1 photons/sec/pixel; light emission (Time 51 (min)): 29.6 photons/sec/pixel; light emission (Time 53 (min)): 28.6 photons/sec/pixel; light emission (Time 56 (min)): 26.2 photons/sec/pixel; light emission (Time 58 (min)): 26.8 photons/sec/pixel; light emission (Time 61 (min)): 23.9 photons/sec/pixel
"C[C@@H]1O[C@@H](O[C@@H]2[C@@H](O)[C@H](OCCc3ccc(O)c(O)c3)O[C@H](CO)[C@H]2OC(=O)/C=C/c2ccc(O)c(O)c2)[C@H](O[C@@H]2O[C@H](CO)[C@H](O)[C@H](O)[C@H]2O)[C@H](O)[C@H]1O [FPA, teupolioside]",13,35,>60,>60,31.8,1.3,1.4,1,0.9,0.8,0.8,0.7,0.6,0.6,0.6,0.5,0.6,0.5,0.6,1.1,"light emission (Time 37 (min)): 0.8 photons/sec/pixel; light emission (Time 41 (min)): 0.7 photons/sec/pixel; light emission (Time 44 (min)): 0.9 photons/sec/pixel; light emission (Time 46 (min)): 0.8 photons/sec/pixel; light emission (Time 49 (min)): 0.8 photons/sec/pixel; light emission (Time 51 (min)): 0.8 photons/sec/pixel; light emission (Time 53 (min)): 0.8 photons/sec/pixel; light emission (Time 56 (min)): 1.1 photons/sec/pixel; light emission (Time 58 (min)): 0.8 photons/sec/pixel; light emission (Time 61 (min)): 1.1 photons/sec/pixel; activity relative to that of Trolox (dosage of 1 μM): ~12 times; antioxidant activity of FPA compared with FPB (in vitro): slightly higher activity with respect to the FPB compound; antioxidant activity in vitro compared with Trolox: extremely high antioxidant activity in vitro, significantly higher than that of Trolox"
COc1cc(C=CC(=O)OC2C(CO)OC(OCCc3ccc(O)c(O)c3)C(O)C2OC2OC(C)C(O)C(O)C2OC2OC(CO)C(O)C(O)C2O)ccc1O (stereo not shown) [FPB],6,29,>60,>60,31.8,0.3,0.2,0,0,0,0,0,0.1,0.4,1.1,1.8,2.6,3.5,5.1,7,"light emission (Time 37 (min)): 6.6 photons/sec/pixel; light emission (Time 41 (min)): 7.6 photons/sec/pixel; light emission (Time 44 (min)): 8.6 photons/sec/pixel; light emission (Time 46 (min)): 8.9 photons/sec/pixel; light emission (Time 49 (min)): 9.6 photons/sec/pixel; light emission (Time 51 (min)): 10.3 photons/sec/pixel; light emission (Time 53 (min)): 10.9 photons/sec/pixel; light emission (Time 56 (min)): 11.4 photons/sec/pixel; light emission (Time 58 (min)): 12.1 photons/sec/pixel; light emission (Time 61 (min)): 12.7 photons/sec/pixel; antioxidant activity in vitro compared with Trolox: extremely high antioxidant activity in vitro, significantly higher than that of Trolox"
